What was measured:
human recombinant BACE2 = human recombinant BACE2 (Homo sapiens (Human), UniProt Q9Y5Z0); assay: In vitro enzymatic BACE2 FRET assay; assay type: biochemical; conditions: read-out: BACE2 Enzyme IC50
Cathepsin D (CatD) = Cathepsin D (CatD) (Homo sapiens (Human), UniProt P07339); assay: In vitro enzymatic Cathepsin D (CatD) FRET assay; assay type: biochemical; conditions: read-out: Cat D Enzyme IC50
BACE1 [1] = target: T1, BACE1 (Homo sapiens (Human), UniProt P56817); assay: In vitro enzymatic BACE1 FRET assay; assay type: biochemical; conditions: read-out: BACE1 Enzyme IC50
Target sequence in this assay (P56817 46-501): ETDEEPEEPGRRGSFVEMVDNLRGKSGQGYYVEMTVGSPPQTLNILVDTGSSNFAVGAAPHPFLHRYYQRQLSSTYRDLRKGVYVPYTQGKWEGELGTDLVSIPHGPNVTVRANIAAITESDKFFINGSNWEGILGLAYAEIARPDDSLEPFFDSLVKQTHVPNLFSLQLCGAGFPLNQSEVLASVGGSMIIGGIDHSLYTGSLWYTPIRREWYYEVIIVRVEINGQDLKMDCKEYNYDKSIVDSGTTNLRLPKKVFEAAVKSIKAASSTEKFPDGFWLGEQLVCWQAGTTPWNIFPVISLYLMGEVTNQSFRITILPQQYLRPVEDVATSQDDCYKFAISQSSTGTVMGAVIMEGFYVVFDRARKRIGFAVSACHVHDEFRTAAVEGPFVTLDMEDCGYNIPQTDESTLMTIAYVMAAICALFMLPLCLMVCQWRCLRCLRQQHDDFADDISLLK

BACE1 [2] = target: T1, BACE1; assay: In vitro BACE1 cell-based assay (Aβ40 in conditioned medium of cells stably expressing APP, HTRF); conditions: Aβ40 in conditioned media after 24 h incubation
Target sequence in this assay (P56817 46-501, species assumed): as the sequence (P56817 46-501) above

human recombinant BACE2, sequence (Q9Y5Z0 63-518): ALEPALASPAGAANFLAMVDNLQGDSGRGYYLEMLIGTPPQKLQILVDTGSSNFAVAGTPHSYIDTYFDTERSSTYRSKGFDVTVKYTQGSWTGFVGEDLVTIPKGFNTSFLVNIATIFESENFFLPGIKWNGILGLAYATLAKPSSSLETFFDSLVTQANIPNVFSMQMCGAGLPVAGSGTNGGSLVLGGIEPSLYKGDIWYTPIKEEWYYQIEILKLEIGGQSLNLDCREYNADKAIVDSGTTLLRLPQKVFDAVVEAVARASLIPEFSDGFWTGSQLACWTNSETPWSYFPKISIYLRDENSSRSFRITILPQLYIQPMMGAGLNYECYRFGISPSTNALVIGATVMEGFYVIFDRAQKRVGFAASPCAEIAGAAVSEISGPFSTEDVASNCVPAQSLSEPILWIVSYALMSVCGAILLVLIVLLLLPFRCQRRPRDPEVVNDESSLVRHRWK
Cathepsin D (CatD), sequence (P07339 65-412, species assumed): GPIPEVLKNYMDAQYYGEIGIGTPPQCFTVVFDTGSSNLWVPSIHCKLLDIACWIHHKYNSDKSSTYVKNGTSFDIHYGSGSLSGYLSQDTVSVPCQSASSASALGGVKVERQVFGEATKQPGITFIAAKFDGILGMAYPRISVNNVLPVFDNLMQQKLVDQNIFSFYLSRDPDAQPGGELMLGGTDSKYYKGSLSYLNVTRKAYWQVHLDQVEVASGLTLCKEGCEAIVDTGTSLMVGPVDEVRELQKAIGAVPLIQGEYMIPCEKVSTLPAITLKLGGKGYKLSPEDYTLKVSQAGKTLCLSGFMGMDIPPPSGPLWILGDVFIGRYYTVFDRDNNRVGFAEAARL

SMILES	IC50 (human recombinant BACE2) [nM]	IC50 (Cathepsin D (CatD)) [nM]	IC50 (BACE1 [1]) [nM]	IC50 (BACE1 [2]) [nM]
CN1C(N)=N[C@](C)(c2cc(/C=C(\F)c3cnc(Cl)cn3)ccc2F)CS1(=O)=O [Example 111, (R,Z)-3-amino-5-(5-(2-(5-chloropyrazin-2-yl)-2-fluorovinyl)-2-fluorophenyl)-2,5-dimethyl-5,6-dihydro-2H-1,2,4-thiadiazine 1,1-dioxide]	5	86300	7	6
CC1(C)C(N)=N[C@](C)(c2cc(/C=C(\F)c3ccc(C#N)cn3)cnc2F)CS1(=O)=O [Example 197, (R,Z)-6-(2-(5-(5-amino-3,6,6-trimethyl-1,1-dioxido-3,6-dihydro-2H-1,4-thiazin-3-yl)-6-fluoropyridin-3-yl)-1-fluorovinyl)nicotinonitrile]	87	81300	33	52
CC1(C)C(N)=N[C@](CF)(c2cc(/C=C(\F)c3cnc(Cl)cn3)ccc2F)CS1(=O)=O [Example 189, (S,Z)-5-amino-3-(5-(2-(5-chloropyrazin-2-yl)-2-fluorovinyl)-2-fluorophenyl)-3-(fluoromethyl)-6,6-dimethyl-3,6-dihydro-2H-1,4-thiazine 1,1-dioxide]	59	61800	60	2220
CC1(C)C(N)=N[C@](C)(c2cc(/C=C(\F)c3cnc(OCc4ccncc4)cn3)ccc2F)CS1(=O)=O [Example 210, (R,Z)-5-amino-3-(2-fluoro-5-(2-fluoro-2-(5-(pyridin-4-ylmethoxy)pyrazin-2-yl)vinyl)phenyl)-3,6,6-trimethyl-3,6-dihydro-2H-1,4-thiazine 1,1-dioxide]	476	467000	1720	2230
CC1(C)C(N)=N[C@](C)(c2cc(/C=C(\F)c3cnc(Cl)cn3)cnc2F)CS1(=O)=O [Example 203, (R,Z)-5-amino-3-(5-(2-(5-chloropyrazin-2-yl)-2-fluorovinyl)-2-fluoropyridin-3-yl)-3,6,6-trimethyl-3,6-dihydro-2H-1,4-thiazine 1,1-dioxide]	56	85400	125	196
CN1C(N)=N[C@](C)(c2cc(/C=C(\F)c3ccc(C#N)cn3)cc(F)c2F)CS1(=O)=O [Example 107, (R,Z)-6-(2-(3-(3-amino-2,5-dimethyl-1,1-dioxido-5,6-dihydro-2H-1,2,4-thiadiazin-5-yl)-4,5-difluorophenyl)-1-fluorovinyl)nicotinonitrile]	25	81800	3	3
CC1(C)C(N)=N[C@](C)(c2cc(/C=C/c3ccc(Cl)cc3)ccc2F)CS1(=O)=O [Example 279, (R,E)-5-amino-3-(5-(4-chlorostyryl)-2-fluorophenyl)-3,6,6-trimethyl-3,6-dihydro-2H-1,4-thiazine 1,1-dioxide]	56	39300	56	442
CC1(C)C(N)=N[C@](C)(c2cc(/C=C(\F)c3cnc(OCCn4cc(Br)cn4)cn3)ccc2F)CS1(=O)=O [Example 156, (R,Z)-5-amino-3-(5-(2-(5-(2-(4-bromo-1H-pyrazol-1-yl)ethoxy)pyrazin-2-yl)-2-fluorovinyl)-2-fluorophenyl)-3,6,6-trimethyl-3,6-dihydro-2H-1,4-thiazine 1,1-dioxide]	671	90500	96	1320
CN1C(N)=N[C@](C)(c2cc(/C=C(\F)c3ncc(C#N)cc3Cl)ccc2F)CS1(=O)=O [Example 269, (R,Z)-6-(2-(3-(3-amino-2,5-dimethyl-1,1-dioxido-5,6-dihydro-2H-1,2,4-thiadiazin-5-yl)-4-fluorophenyl)-1-fluorovinyl)-5-chloronicotinonitrile]	3	119000	2	4

Further molecules by falling IC50 (human recombinant BACE2), results first:

IC50 (human recombinant BACE2) [nM]	IC50 (Cathepsin D (CatD)) [nM]	IC50 (BACE1 [1]) [nM]	IC50 (BACE1 [2]) [nM]	SMILES
790	335000	296	277	CC1(C)C(N)=N[C@](C)(c2cc(/C=C(\F)c3cc4c(cn3)OCCO4)ccc2F)CS1(=O)=O [Example 184, (R,Z)-5-amino-3-(5-(2-(2,3-dihydro-[1,4]dioxino[2,3-c]pyridin-7-yl)-2-fluorovinyl)-2-fluorophenyl)-3,6,6-trimethyl-3,6-dihydro-2H-1,4-thiazine 1,1-dioxide]
425	90500	193	739	CC1(C)C(N)=N[C@](C)(c2cc(/C=C(\F)c3cnc(OCCC(F)(F)F)cn3)ccc2F)CS1(=O)=O [Example 142, (R,Z)-5-amino-3-(2-fluoro-5-(2-fluoro-2-(5-(3,3,3-trifluoropropoxy)pyrazin-2-yl)vinyl)phenyl)-3,6,6-trimethyl-3,6-dihydro-2H-1,4-thiazine 1,1-dioxide]
377	208000	136	142	C[C@H](O)COc1cnc(/C(F)=C/c2ccc(F)c([C@]3(C)CS(=O)(=O)C(C)(C)C(N)=N3)c2)cn1 [Example 219, (R)-5-amino-3-(2-fluoro-5-((Z)-2-fluoro-2-(5-((S)-2-hydroxypropoxy)pyrazin-2-yl)vinyl)phenyl)-3,6,6-trimethyl-3,6-dihydro-2H-1,4-thiazine 1,1-dioxide]
371	38300	113	173	CC#C[C@@H](CC)Oc1cnc(/C(F)=C/c2ccc(F)c([C@]3(C)CS(=O)(=O)C(C)(C)C(N)=N3)c2)cn1 (single isomer, unassigned) [Example 198]
222	30500	44	380	CN1C(N)=N[C@](C)(c2cc(/C=C(\F)c3cnc(OCC4CC4)cn3)ccc2F)CS1(=O)=O [Example 143, (R,Z)-3-amino-5-(5-(2-(5-(cyclopropylmethoxy)pyrazin-2-yl)-2-fluorovinyl)-2-fluorophenyl)-2,5-dimethyl-5,6-dihydro-2H-1,2,4-thiadiazine 1,1-dioxide]
161	218000	39	134	CC1(C)C(N)=N[C@](C)(c2cc(/C=C(\F)c3cnc(OCC(F)(F)F)cn3)ccc2F)CS1(=O)=O [Example 124, (R,Z)-5-amino-3-(2-fluoro-5-(2-fluoro-2-(5-(2,2,2-trifluoroethoxy)pyrazin-2-yl)vinyl)phenyl)-3,6,6-trimethyl-3,6-dihydro-2H-1,4-thiazine 1,1-dioxide]
56	163000	7	5	CC1(C)C(N)=N[C@](C)(c2cc(/C=C(\F)c3cnc(OCc4ncco4)cn3)ccc2F)CS1(=O)=O [Example 129, (R,Z)-5-amino-3-(2-fluoro-5-(2-fluoro-2-(5-(oxazol-2-ylmethoxy)pyrazin-2-yl)vinyl)phenyl)-3,6,6-trimethyl-3,6-dihydro-2H-1,4-thiazine 1,1-dioxide]
16	12700	3	13	CN1C(N)=N[C@](C)(c2cc(/C=C(\F)c3cnc(C#CC4CC4)cn3)ccc2F)CS1(=O)=O [Example 248, (R,Z)-3-amino-5-(5-(2-(5-(cyclopropylethynyl)pyrazin-2-yl)-2-fluorovinyl)-2-fluorophenyl)-2,5-dimethyl-5,6-dihydro-2H-1,2,4-thiadiazine 1,1-dioxide]
